Results as given in publication PMC4931907 (eLife, 2016).
pIC50: −log10 of the molar value.

Experiments:
[1] = molecular target: T1, CBP (Homo sapiens, UniProt Q92793); test: In vitro HAT assay with recombinant CBP, histones and 14C acetyl-CoA; assay type: biochemical; conditions: read-out: IC50, CBP-mediated acetyltransferase activity
T1 construct: purchased Enzo Life Sciences
Procedure: To determine whether salicylate inhibits p300 and other acetyltransferases, we used in vitro acetylation assays with purified histones and a recombinant p300 catalytic domain.
Figure 1. Salicylate inhibits CBP/p300 in vitro. (A) Recombinant p300, CBP, GCN5, or PCAF and histones were incubated with ^14C-labeled acetyl-CoA with or without sodium salicylate, separated by SDS-PAGE, analyzed by autoradiography, and quantified with Image J software. Acetylation levels are relative to those in untreated controls. (B) Thermal stability assay for sodium salicylate binding to the p300 HAT domain. Tm, melting temperature. […] Histone acetylation was measured with several concentrations of acetyl-CoA (C) or histone (D) in the presence or absence of sodium salicylate. […] Acetylation of an H4(3–14) peptide was monitored using direct microfluidic mobility shift analysis as previously described ([Montgomery et al., 2014]; [Fanslau et al., 2010]). […]
Recombinant HAT ([…]), either p300, CBP, PCAF, or GCN5 (Enzo Life Sciences), and 10 µg of histones (Sigma) were incubated with sodium salicylate (Sigma) in reaction buffer (50 mM HEPES, pH 8.0, 10% glycerol, 1 mM) at 30°C for 30 min and then with 0.1 mCi of ^14C acetyl-CoA at 30°C for 60 min. Reactions were stopped by adding 6x sample buffer and analyzed by SDS-PAGE. […]

[2] = molecular target: T2, p300 HAT domain (residues 1279–1666, Tyr1467Phe) (Homo sapiens, UniProt Q09472, Y1467F); test: Thermal stability assay (SYPRO orange); assay type: binding; conditions: p300/acetyl-CoA without salicylate 48.6°C
T2 construct: 6-His (N, cleaved yes); made in house; host or cells: E. coli BL21 (DE3)
T2 sequence (Q09472 1279-1666 Y1467F): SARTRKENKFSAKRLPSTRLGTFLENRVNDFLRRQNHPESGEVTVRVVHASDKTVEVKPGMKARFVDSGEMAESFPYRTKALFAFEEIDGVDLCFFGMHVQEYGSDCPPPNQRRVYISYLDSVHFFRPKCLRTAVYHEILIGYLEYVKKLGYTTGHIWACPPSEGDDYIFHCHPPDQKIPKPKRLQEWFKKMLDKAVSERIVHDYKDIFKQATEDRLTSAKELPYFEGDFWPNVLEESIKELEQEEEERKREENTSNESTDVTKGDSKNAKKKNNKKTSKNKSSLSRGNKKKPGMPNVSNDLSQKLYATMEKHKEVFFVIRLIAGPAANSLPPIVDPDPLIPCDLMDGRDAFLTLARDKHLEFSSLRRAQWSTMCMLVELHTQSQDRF
Procedure: To confirm that salicylate binds to p300, we used thermal stability assays. A p300 HAT domain construct (residues 1279–1666) bearing an inactivating Tyr1467Phe mutation to facilitate purification of homogeneously hypoacetylated p300 was expressed and purified with an N-terminal 6-His tag from E. coli cells. The protein was further purified by chromatography and incubated with increasing concentrations of sodium salicylate for 30 min and with SYPRO orange dye (Invitrogen). Thermal melt curves were obtained by heating the protein from 20–95°C and monitoring fluorescence at 590 nm.
A thermal stability assay was used to assess the binding of salicylate to the p300 HAT domain. A p300 HAT domain construct (residues 1279–1666) bearing an inactivating Tyr1467Phe mutation to facilitate purification of homogeneously hypoacetyalted p300 was cloned into a pET-DUET vector with an N-terminal 6-His tag and expressed in BL21 (DE3) E. coli cells. […]
The final concentration of p300 was 2 μM in reaction buffer (0.1 M HEPES, pH 7.5, 150 mM NaCl, and 5 mM -mercaptoethanol). […] Thermal melt curves were obtained by heating the protein from 20–95°C and monitoring fluorescence at 590 nm with a 7900HT Fast Real Time PCR System (Applied Biosystems). […]

[3] = system: acetyl NF-κBK310; test: Acetylation of overexpressed NF-κB p65 in HEK293T cells, Western blot; assay type: cell-based; conditions: HEK293T transfected with p300 and NF-κB p65, 24 hr
Text: Figure 2.

T1 sequence (Q92793 whole entry): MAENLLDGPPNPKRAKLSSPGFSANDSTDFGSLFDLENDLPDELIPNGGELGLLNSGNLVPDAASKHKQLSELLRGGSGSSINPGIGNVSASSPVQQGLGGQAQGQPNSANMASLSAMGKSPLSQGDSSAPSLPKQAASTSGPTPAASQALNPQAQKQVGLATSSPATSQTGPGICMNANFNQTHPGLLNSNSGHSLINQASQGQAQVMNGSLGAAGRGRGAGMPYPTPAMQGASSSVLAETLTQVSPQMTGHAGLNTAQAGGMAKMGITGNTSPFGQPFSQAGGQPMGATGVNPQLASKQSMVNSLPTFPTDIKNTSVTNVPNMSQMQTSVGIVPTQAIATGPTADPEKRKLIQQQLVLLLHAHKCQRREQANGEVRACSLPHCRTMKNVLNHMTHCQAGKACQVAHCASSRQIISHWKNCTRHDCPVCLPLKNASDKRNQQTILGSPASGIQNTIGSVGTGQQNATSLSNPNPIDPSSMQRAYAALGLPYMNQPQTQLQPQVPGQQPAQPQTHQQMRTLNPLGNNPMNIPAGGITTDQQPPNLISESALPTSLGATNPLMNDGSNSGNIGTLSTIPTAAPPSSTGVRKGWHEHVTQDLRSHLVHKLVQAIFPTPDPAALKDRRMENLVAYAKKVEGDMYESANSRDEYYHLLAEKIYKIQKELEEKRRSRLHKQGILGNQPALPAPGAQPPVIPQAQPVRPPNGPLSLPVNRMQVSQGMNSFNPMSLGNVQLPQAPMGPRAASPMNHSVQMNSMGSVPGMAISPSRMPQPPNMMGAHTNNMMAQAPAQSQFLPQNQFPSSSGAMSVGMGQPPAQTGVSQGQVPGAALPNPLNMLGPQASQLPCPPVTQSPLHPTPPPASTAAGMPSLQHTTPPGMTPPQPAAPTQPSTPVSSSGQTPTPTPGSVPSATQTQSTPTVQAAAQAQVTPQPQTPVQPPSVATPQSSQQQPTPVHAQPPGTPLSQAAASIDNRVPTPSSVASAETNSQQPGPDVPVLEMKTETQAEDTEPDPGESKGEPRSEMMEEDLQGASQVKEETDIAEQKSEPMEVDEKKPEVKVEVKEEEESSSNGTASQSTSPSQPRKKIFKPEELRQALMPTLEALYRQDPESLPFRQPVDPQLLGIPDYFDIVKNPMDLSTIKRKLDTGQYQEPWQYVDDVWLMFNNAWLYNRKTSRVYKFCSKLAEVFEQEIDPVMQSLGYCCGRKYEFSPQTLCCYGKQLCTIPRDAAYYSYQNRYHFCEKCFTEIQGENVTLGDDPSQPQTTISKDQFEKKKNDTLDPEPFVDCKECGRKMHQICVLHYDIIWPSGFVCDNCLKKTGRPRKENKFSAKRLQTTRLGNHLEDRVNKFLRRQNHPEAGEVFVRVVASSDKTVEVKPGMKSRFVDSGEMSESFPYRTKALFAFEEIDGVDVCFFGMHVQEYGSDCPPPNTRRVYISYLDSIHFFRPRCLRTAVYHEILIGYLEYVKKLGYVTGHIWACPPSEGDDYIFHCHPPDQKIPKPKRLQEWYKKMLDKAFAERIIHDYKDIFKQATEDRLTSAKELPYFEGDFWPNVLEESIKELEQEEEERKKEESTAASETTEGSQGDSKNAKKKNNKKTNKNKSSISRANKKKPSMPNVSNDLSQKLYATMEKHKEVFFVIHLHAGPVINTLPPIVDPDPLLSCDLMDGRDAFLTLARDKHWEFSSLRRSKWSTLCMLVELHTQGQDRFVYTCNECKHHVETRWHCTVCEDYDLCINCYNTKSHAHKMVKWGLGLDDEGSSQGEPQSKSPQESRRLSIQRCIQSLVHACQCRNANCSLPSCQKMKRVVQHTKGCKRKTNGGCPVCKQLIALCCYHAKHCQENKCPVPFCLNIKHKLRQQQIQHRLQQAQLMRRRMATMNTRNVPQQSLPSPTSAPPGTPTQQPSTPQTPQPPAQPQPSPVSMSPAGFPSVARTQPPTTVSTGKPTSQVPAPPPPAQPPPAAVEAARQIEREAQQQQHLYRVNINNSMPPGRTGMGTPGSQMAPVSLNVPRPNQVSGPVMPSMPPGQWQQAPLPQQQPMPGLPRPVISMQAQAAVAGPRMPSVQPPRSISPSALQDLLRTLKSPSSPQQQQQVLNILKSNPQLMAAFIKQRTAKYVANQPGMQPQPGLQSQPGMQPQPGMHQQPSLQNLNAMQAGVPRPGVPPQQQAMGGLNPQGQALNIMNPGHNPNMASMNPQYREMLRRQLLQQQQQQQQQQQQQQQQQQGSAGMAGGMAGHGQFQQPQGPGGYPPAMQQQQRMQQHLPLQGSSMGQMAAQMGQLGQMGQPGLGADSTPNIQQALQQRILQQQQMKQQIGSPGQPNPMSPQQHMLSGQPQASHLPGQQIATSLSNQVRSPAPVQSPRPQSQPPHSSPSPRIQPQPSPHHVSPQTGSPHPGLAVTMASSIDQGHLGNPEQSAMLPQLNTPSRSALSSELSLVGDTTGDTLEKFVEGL

O=C(O)c1ccccc1O [salicylate, salicylic acid]
pIC50 [1]: 2.24 | Thermal unfolding temperature of p300 HAT domain ([2]; 10 mM salicylate): 46.1 °C | Thermal unfolding temperature of p300 HAT domain ([2]; 25 mM salicylate): 40.8 °C | Acetylation of NF-κB p65 K310 [3]: decreased acetylation
